According to patent US12497428B2, “Galactoside inhibitor of galectins” (GALECTO BIOTECH AB, priority 2018, dated 2025):
Converted amounts (≈) assume the structure as drawn.

Tests used:
Galectin-1 = Galectin-1 (Homo sapiens, UniProt P09382); test: Fluorescence anisotropy assay, inhibition of galectin / fluorescein tagged saccharide probe interaction; type: binding
Method: (§1) The affinity of Example 1-28 for galectins were determined by a fluorescence anisotropy assay where the compound was used as an inhibitor of the interaction between galectin and a fluorescein tagged saccharide probe as described Sörme, P., Kahl-Knutsson, B., Huflejt, M., Nilsson, U. J., and Leffler H. (2004) Fluorescence polarization as an analytical tool to evaluate galectin-ligand interactions. Anal. Biochem. 334: 36-47, (Sörme et al., 2004) and Monovalent interactions of Galectin-1 By Salomonsson, Emma; Larumbe, Amaia; Tejler, Johan; Tullberg, Erik; Rydberg, Hanna; Sundin, Anders; Khabut, Areej; Frejd, Torbjorn; Lobsanov, Yuri D.; Rini, James M.; et al, From Biochemistry (2010), 49(44), 9518-9532, (Salomonsson et al., 2010).

Galectin-3 = Galectin-3 (Homo sapiens, UniProt P17931); test: as above; type: binding
Sequence of Galectin-3 (P17931 whole entry): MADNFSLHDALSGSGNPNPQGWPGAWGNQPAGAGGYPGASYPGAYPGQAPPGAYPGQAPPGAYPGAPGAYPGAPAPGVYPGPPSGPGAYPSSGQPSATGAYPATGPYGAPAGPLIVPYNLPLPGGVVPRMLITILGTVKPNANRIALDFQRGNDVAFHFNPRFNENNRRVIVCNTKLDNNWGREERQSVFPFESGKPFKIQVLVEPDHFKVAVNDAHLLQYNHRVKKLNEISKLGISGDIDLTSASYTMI
Method: as §1

Aqueous solubility = type: physicochemical

Sequence of Galectin-1 (P09382 whole entry): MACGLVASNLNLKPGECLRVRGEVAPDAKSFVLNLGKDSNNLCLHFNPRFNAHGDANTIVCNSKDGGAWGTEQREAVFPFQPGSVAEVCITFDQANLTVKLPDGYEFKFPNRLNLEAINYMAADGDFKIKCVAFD

Question: What does the source list for CC(OC1C(n2cc(-c3cc(F)c(F)c(F)c3)nn2)[C@@H](O)C(CO)O[C@@H]1Sc1cncc(Br)c1)C(=O)O (single isomer, unassigned; diastereomer 1) [Example 27]?
Answer: Kd (Galectin-1): 6500 nM; Kd (Galectin-3): 15 nM

Question: Which results are given for CC(OC1C(n2cc(-c3cc(F)c(F)c(F)c3)nn2)[C@@H](O)C(CO)O[C@@H]1Sc1cncc(Br)c1)C(=O)O (single isomer, unassigned; diastereomer 2) [Example 28]?
Answer: Kd (Galectin-1): 6400 nM; Kd (Galectin-3): 6 nM

Question: What does the source list for CS(=O)(=O)NC(=O)COC1C(n2cc(-c3cc(F)c(Cl)c(F)c3)nn2)[C@@H](O)C(CO)O[C@@H]1Sc1ccc(Cl)c(Cl)c1 (stereo in doubt) [Example 9, 3,4-Dichlorphenyl 3-[4-(4-chloro-3,5-difluorophenyl)-1H-1,2,3-triazol-1-yl]-3-deoxy-2-O-[2-(methylsulfonamido)-2-oxoethyl]-1-thio-α-D-galactopyranoside]?
Answer: solubility (Aqueous solubility): 2900 µg/mL (≈ 4.3 mM); Kd (Galectin-1): 3000 nM; Kd (Galectin-3): 23 nM

Question: For OCC1O[C@H](Sc2ccc(Cl)c(Cl)c2)C(OCc2nnn[nH]2)C(n2cc(-c3cc(F)c(Cl)c(F)c3)nn2)[C@H]1O (stereo in doubt) [Example 13, 3,4-Dichlorphenyl 3-[4-(4-chloro-3,5-difluorophenyl)-1H-1,2,3-triazol-1-yl]-3-deoxy-2-O-[(1H-tetrazol-5-yl)methyl]-1-thio-α-D-galactopyranoside], which Kd (Galectin-1) is on record?
Answer: 1400 nM

Question: What about the Kd (Galectin-3) of the same compound?
Answer: 64 nM

Question: Which Kd (Galectin-1) does the source give for OCC1O[C@H](Sc2ccc(Cl)c(Cl)c2)C(OCc2nnn[nH]2)C(n2cc(-c3cc(F)c(F)c(F)c3)nn2)[C@H]1O (stereo in doubt) [Example 14, 3,4-Dichlorphenyl 3-deoxy-3-[4-(3,4,5-trifluorophenyl)-1H-1,2,3-triazol-1-yl]-2-O-[(1H-tetrazol-5-yl)methyl]-1-thio-α-D-galactopyranoside] here?
Answer: 1800 nM

Question: What about the Kd (Galectin-3) of the same compound?
Answer: 8 nM

Question: With O=P(O)(O)O[C@@H]1[C@@H](n2cc(-c3cc(F)c(F)c(F)c3)nn2)[C@@H](O)[C@@H](CO)O[C@@H]1Sc1cncc(Br)c1 [Example 1, 5-Bromopyridin-3-yl 3-deoxy-3-[4-(3,4,5-trifluorophenyl)-1H-1,2,3-triazol-1-yl]-2-O-phospho-1-thio-α-D-galactopyranoside] as the compound, how does the Kd (Galectin-1) read?
Answer: 5400 nM

Question: Which results are given for O=S(=O)(O)O[C@@H]1[C@@H](n2cc(-c3cc(F)c(F)c(F)c3)nn2)[C@@H](O)[C@@H](CO)O[C@@H]1Sc1cncc(Br)c1 [Example 4, 5-Bromopyridin-3-yl 3-deoxy-3-[4-(3,4,5-trifluorophenyl)-1H-1,2,3-triazol-1-yl]-2-O-sulfo-1-thio-α-D-galactopyranside]?
Answer: Kd (Galectin-1): 3150 nM; Kd (Galectin-3): 3 nM

Question: Which solubility (Aqueous solubility) does the source give for O=P(O)(O)OCO[C@@H]1[C@@H](n2cc(-c3cc(F)c(F)c(F)c3)nn2)[C@@H](O)[C@@H](CO)O[C@@H]1Sc1cncc(Br)c1 [Example 5, 5-Bromopyridin-3-yl 3-deoxy-3-[4-(3,4,5-trifluorophenyl)-1H-1,2,3-triazol-1-yl]-2-O-[(phosphonooxy)methyl]-1-thio-α-D-galactopyranoside] here?
Answer: > 10000 µg/mL

Question: And the Kd (Galectin-1)?
Answer: 3830 nM

Question: What about the Kd (Galectin-3) of the same compound?
Answer: 12 nM

Question: For O=C(O)CO[C@@H]1[C@@H](n2cc(-c3cc(F)c(F)c(F)c3)nn2)[C@@H](O)[C@@H](CO)O[C@@H]1Sc1ccc(Cl)c(Cl)c1 [Example 6, 3,4-Dichlorphenyl 2-O-carboxymethyl-3-deoxy-3-[4-(3,4,5-trifluorophenyl)-1H-1,2,3-triazol-1-yl]-1-thio-α-D-galactopyranoside], which Kd (Galectin-3) is on record?
Answer: 17 nM

Question: For OC[C@H]1O[C@H](Sc2cncc(Br)c2)[C@H](OCc2cocn2)[C@@H](n2cc(-c3cc(F)c(F)c(F)c3)nn2)[C@H]1O [Example 10, 5-Bromopyridin-3-yl 3-deoxy-3-[4-(3,4,5-trifluorophenyl)-1H-1,2,3-triazol-1-yl]-2-O-(oxazol-4-ylmethyl)-1-thio-α-D-galactopyranoside], which Kd (Galectin-1) is on record?
Answer: 9200 nM

Question: And the Kd (Galectin-3)?
Answer: 24 nM

Question: With OC[C@H]1O[C@H](Sc2cncc(Br)c2)[C@H](OCc2cc(F)c(O)c(F)c2)[C@@H](n2cc(-c3cc(F)c(F)c(F)c3)nn2)[C@H]1O [Example 11, 5-Bromopyridin-3-yl 3-deoxy-3-[4-(3,4,5-trifluorophenyl)-1H-1,2,3-triazol-1-yl]-2-O-(3,5-difluoro-4-hydroxybenzyl)-1-thio-α-D-galactopyranoside] as the compound, how does the Kd (Galectin-1) read?
Answer: 260 nM

Question: And the Kd (Galectin-3)?
Answer: 17 nM

Question: Which Kd (Galectin-1) does the source give for OC[C@H]1O[C@H](Sc2cncc(Br)c2)[C@H](OCc2nnn[nH]2)[C@@H](n2cc(-c3cc(F)c(F)c(F)c3)nn2)[C@H]1O [Example 12, 5-Bromopyridin-3-yl 3-deoxy-3-[4-(3,4,5-trifluorophenyl)-1H-1,2,3-triazol-1-yl]-2-O-[(1H-tetrazol-5-yl)methyl]-1-thio-α-D-galactopyranoside] here?
Answer: 2400 nM

Question: What about the Kd (Galectin-3) of the same compound?
Answer: 16 nM

Question: Which results are given for OC[C@H]1O[C@H](Sc2cncc(Br)c2)[C@H](OCc2ncc[nH]2)[C@@H](n2cc(-c3cc(F)c(F)c(F)c3)nn2)[C@H]1O [Example 15, 5-Bromopyridin-3-yl 3-deoxy-3-[4-(3,4,5-trifluorophenyl)-1H-1,2,3-triazol-1-yl]-2-O-[(1H-imidazol-2-yl)methyl]-1-thio-α-D-galactopyranoside]?
Answer: Kd (Galectin-1): 9500 nM; Kd (Galectin-3): 7 nM

Question: For Cn1ccnc1CO[C@@H]1[C@@H](n2cc(-c3cc(F)c(F)c(F)c3)nn2)[C@@H](O)[C@@H](CO)O[C@@H]1Sc1cncc(Br)c1 [Example 16, 5-Bromopyridin-3-yl 3-deoxy-3-[4-(3,4,5-trifluorophenyl)-1H-1,2,3-triazol-1-yl]-2-O-[(1-methyl-1H-imidazol-2-yl)methyl]-1-thio-α-D-galactopyranoside], which Kd (Galectin-1) is on record?
Answer: 6400 nM

Question: And the Kd (Galectin-3)?
Answer: 57 nM

Question: With OC[C@H]1O[C@H](Sc2cncc(Br)c2)[C@H](OCc2ncco2)[C@@H](n2cc(-c3cc(F)c(F)c(F)c3)nn2)[C@H]1O [Example 17, 5-Bromopyridin-3-yl 3-deoxy-3-[4-(3,4,5-trifluorophenyl)-1H-1,2,3-triazol-1-yl]-2-O-[(oxazol-2-yl)methyl]-1-thio-α-D-galactopyranoside] as the compound, how does the Kd (Galectin-1) read?
Answer: 2800 nM

Question: And the Kd (Galectin-3)?
Answer: 24 nM

Question: Which Kd (Galectin-1) does the source give for OC[C@H]1O[C@H](Sc2cncc(Br)c2)[C@H](OCc2cnco2)[C@@H](n2cc(-c3cc(F)c(F)c(F)c3)nn2)[C@H]1O [Example 18, 5-Bromopyridin-3-yl 3-deoxy-3-[4-(3,4,5-trifluorophenyl)-1H-1,2,3-triazol-1-yl]-2-O-[(oxazol-5-yl)methyl]-1-thio-α-D-galactopyranoside] here?
Answer: 14800 nM

Question: What about the Kd (Galectin-3) of the same compound?
Answer: 130 nM

Question: Which results are given for OC[C@H]1O[C@H](Sc2cncc(Br)c2)[C@H](OCc2ccon2)[C@@H](n2cc(-c3cc(F)c(F)c(F)c3)nn2)[C@H]1O [Example 19, 5-Bromopyridin-3-yl 3-deoxy-3-[4-(3,4,5-trifluorophenyl)-1H-1,2,3-triazol-1-yl]-2-O-[(isoxazol-3-yl)methyl]-1-thio-α-D-galactopyranoside]?
Answer: Kd (Galectin-1): 2900 nM; Kd (Galectin-3): 32 nM

Question: Which Kd (Galectin-1) does the source give for OCC1O[C@H](Sc2ccc(Cl)c(Cl)c2)C(OCc2cocn2)C(n2cc(-c3cc(F)c(Cl)c(F)c3)nn2)[C@H]1O (stereo partly drawn) [Example 20, 3,4-Dichlorphenyl 3-[4-(4-chloro-3,5-difluorophenyl)-1H-1,2,3-triazol-1-yl]-3-deoxy-2-O-[(oxazol-4-yl)methyl]-1-thio-α-D-galactopyranoside] here?
Answer: 29700 nM

Question: And the Kd (Galectin-3)?
Answer: 87 nM

Question: Which Kd (Galectin-1) does the source give for OC[C@H]1O[C@H](Sc2cncc(Br)c2)[C@H](OCc2cscn2)[C@@H](n2cc(-c3cc(F)c(F)c(F)c3)nn2)[C@H]1O [Example 21, 5-Bromopyridin-3-yl 3-deoxy-3-[4-(3,4,5-trifluorophenyl)-1H-1,2,3-triazol-1-yl]-2-O-[(thiazol-4-yl)methyl]-1-thio-α-D-galactopyranoside] here?
Answer: 8600 nM

Question: And the Kd (Galectin-3)?
Answer: 18 nM

Question: With OC[C@H]1O[C@H](Sc2cncc(Br)c2)[C@H](OCc2cncs2)[C@@H](n2cc(-c3cc(F)c(F)c(F)c3)nn2)[C@H]1O [Example 22, 5-Bromopyridin-3-yl 3-deoxy-3-[4-(3,4,5-trifluorophenyl)-1H-1,2,3-triazol-1-yl]-2-O-[(thiazol-5-yl)methyl]-1-thio-α-D-galactopyranoside] as the compound, how does the Kd (Galectin-1) read?
Answer: 1900 nM

Question: What about the Kd (Galectin-3) of the same compound?
Answer: 21 nM

Question: For OC[C@H]1O[C@H](Sc2cncc(Br)c2)[C@H](OCc2nccs2)[C@@H](n2cc(-c3cc(F)c(F)c(F)c3)nn2)[C@H]1O [Example 23, 5-Bromopyridin-3-yl 3-deoxy-3-[4-(3,4,5-trifluorophenyl)-1H-1,2,3-triazol-1-yl]-2-O-[(thiazol-2-yl)methyl]-1-thio-α-D-galactopyranoside], which Kd (Galectin-1) is on record?
Answer: 2600 nM

Question: What about the Kd (Galectin-3) of the same compound?
Answer: 41 nM

Question: Which results are given for CN(C)C(=O)c1ccc(Cl)cc1S[C@H]1OC(CO)[C@H](O)C(n2cc(-c3cc(F)c(F)c(F)c3)nn2)C1OCc1cscn1 (stereo partly drawn) [Example 24, 4-Chloro-N,N-dimethyl-benzamide-2-yl 3-deoxy-3-[4-(3,4,5-trifluorophenyl)-1H-1,2,3-triazol-1-yl]-2-O-[(thiazol-4-yl)methyl]-1-thio-α-D-galactopyranoside]?
Answer: Kd (Galectin-1): 3700 nM; Kd (Galectin-3): 14 nM

Question: Which results are given for CN(C)C(=O)c1ccc(Cl)cc1S[C@H]1OC(CO)[C@H](O)C(n2cc(-c3cc(F)c(F)c(F)c3)nn2)C1OCc1nnn[nH]1 (stereo partly drawn) [Example 25, 4-Chloro-N,N-dimethyl-benzamide-2-yl 3-deoxy-3-[4-(3,4,5-trifluorophenyl)-1H-1,2,3-triazol-1-yl]-2-O-[(1H-tetrazol-5-yl)methyl]-1-thio-α-D-galactopyranoside]?
Answer: Kd (Galectin-1): 1200 nM; Kd (Galectin-3): 4 nM

Question: For O=C(O)CCCO[C@@H]1[C@@H](n2cc(-c3cc(F)c(F)c(F)c3)nn2)[C@@H](O)[C@@H](CO)O[C@@H]1Sc1cncc(Br)c1 [Example 26, 5-Bromopyridin-3-yl 2-O-carboxypropyl-3-deoxy-3-[4-(3,4,5-trifluorophenyl)-1H-1,2,3-triazol-1-yl]-1-thio-α-D-galactopyranoside], which Kd (Galectin-1) is on record?
Answer: 1500 nM

Question: What about the Kd (Galectin-3) of the same compound?
Answer: 10 nM
